Measurements taken from ChEMBL document CHEMBL1133984, “Synthesis, topoisomerase I inhibition and antitumor cytotoxicity of 2,2':6',2"-, 2,2':6',3"- and 2,2':6',4"-terpyridine derivatives” (2001).
Values after ≈ are worked out from the molar mass of the structure shown.

Tests used:
Type in all cases: functional
Conditions in all cases: Homo sapiens
A498 = test: Antitumor cytotoxic activity against A-498 cell line was determined
A549 = test: Antitumor cytotoxic activity against A-549 cell line was determined
HCT-15 = test: Antitumor cytotoxic activity against HCT-15 cell line was determined
HT-29 = test: Antitumor cytotoxic activity against HT-29 cell line was determined
PC-3 = test: Antitumor cytotoxic activity against PC-3 cell line was determined
RPTEC = test: Antitumor cytotoxic activity against RPTEC cell line was determined
SK-OV-3 = test: Antitumor cytotoxic activity against SK-OV-3 cell line was determined
SK-MEL-2 = test: Antitumor cytotoxic activity against SK-MEL-2 cell line was determined

c1ccc(-c2cc(-c3ccccn3)nc(-c3ccccn3)c2)cc1
GI50 (A498): 2.5 ng/mL (≈ 0.00808 µM) | GI50 (A549): 560 ng/mL (≈ 1.81 µM) | GI50 (HCT-15): 370 ng/mL (≈ 1.2 µM) | GI50 (HT-29): 1.4 ng/mL (≈ 0.00453 µM) | GI50 (PC-3): 17 ng/mL (≈ 0.055 µM) | GI50 (RPTEC): 27 ng/mL (≈ 0.0873 µM) | GI50 (SK-OV-3): 120 ng/mL (≈ 0.388 µM) | GI50 (SK-MEL-2): 7500 ng/mL (≈ 24.2 µM)

c1ccc(-c2cc(-c3ccco3)cc(-c3ccccn3)n2)nc1
GI50 (A498): 0.064 ng/mL (≈ 0.000214 µM) | GI50 (A549): 220 ng/mL (≈ 0.735 µM) | GI50 (HCT-15): 100 ng/mL (≈ 0.334 µM) | GI50 (HT-29): 2.4 ng/mL (≈ 0.00802 µM) | GI50 (PC-3): 2.5 ng/mL (≈ 0.00835 µM) | GI50 (RPTEC): 4.1 ng/mL (≈ 0.0137 µM) | GI50 (SK-OV-3): 130 ng/mL (≈ 0.434 µM) | GI50 (SK-MEL-2): 9900 ng/mL (≈ 33.1 µM)

c1ccc(-c2cc(-c3ccsc3)cc(-c3ccccn3)n2)nc1
GI50 (A498): 0.097 ng/mL (≈ 0.000308 µM) | GI50 (A549): 620 ng/mL (≈ 1.97 µM) | GI50 (HCT-15): 290 ng/mL (≈ 0.919 µM) | GI50 (HT-29): 2.7 ng/mL (≈ 0.00856 µM) | GI50 (PC-3): 1.7 ng/mL (≈ 0.00539 µM) | GI50 (RPTEC): 4.7 ng/mL (≈ 0.0149 µM) | GI50 (SK-OV-3): 100 ng/mL (≈ 0.317 µM) | GI50 (SK-MEL-2): 890 ng/mL (≈ 2.82 µM)

c1ccc(-c2cc(-c3cccs3)cc(-c3cccnc3)n2)nc1
GI50 (A498): 2.9 ng/mL (≈ 0.00919 µM) | GI50 (A549): 78900 ng/mL (≈ 250 µM) | GI50 (HCT-15): 56100 ng/mL (≈ 178 µM) | GI50 (HT-29): 190 ng/mL (≈ 0.602 µM) | GI50 (PC-3): 31 ng/mL (≈ 0.0983 µM) | GI50 (RPTEC): 56 ng/mL (≈ 0.178 µM) | GI50 (SK-OV-3): 52000 ng/mL (≈ 165 µM) | GI50 (SK-MEL-2): 77700 ng/mL (≈ 246 µM)

c1ccc(-c2cc(-c3cccs3)cc(-c3ccncc3)n2)nc1
GI50 (A498): 840 ng/mL (≈ 2.66 µM) | GI50 (A549): 36200 ng/mL (≈ 115 µM) | GI50 (HCT-15): 15100 ng/mL (≈ 47.9 µM) | GI50 (HT-29): 520 ng/mL (≈ 1.65 µM) | GI50 (PC-3): 220 ng/mL (≈ 0.698 µM) | GI50 (RPTEC): 650 ng/mL (≈ 2.06 µM) | GI50 (SK-OV-3): 48300 ng/mL (≈ 153 µM) | GI50 (SK-MEL-2): 35200 ng/mL (≈ 112 µM)

c1ccc(-c2cc(-c3cccnc3)nc(-c3ccccn3)c2)cc1
GI50 (A498): 74 ng/mL (≈ 0.239 µM) | GI50 (A549): 44800 ng/mL (≈ 145 µM) | GI50 (HCT-15): 40900 ng/mL (≈ 132 µM) | GI50 (HT-29): 330 ng/mL (≈ 1.07 µM) | GI50 (PC-3): 280 ng/mL (≈ 0.905 µM) | GI50 (RPTEC): 360 ng/mL (≈ 1.16 µM) | GI50 (SK-OV-3): 49600 ng/mL (≈ 160 µM) | GI50 (SK-MEL-2): 89200 ng/mL (≈ 288 µM)

c1ccc(-c2cc(-c3ccsc3)cc(-c3cccnc3)n2)nc1
GI50 (A498): 640 ng/mL (≈ 2.03 µM) | GI50 (A549): > 100000 ng/mL | GI50 (HCT-15): > 100000 ng/mL | GI50 (HT-29): 360 ng/mL (≈ 1.14 µM) | GI50 (PC-3): 54 ng/mL (≈ 0.171 µM) | GI50 (RPTEC): 310 ng/mL (≈ 0.983 µM) | GI50 (SK-OV-3): > 100000 ng/mL | GI50 (SK-MEL-2): > 100000 ng/mL

c1ccc(-c2cc(-c3ccoc3)cc(-c3ccccn3)n2)nc1
GI50 (A498): 0.032 ng/mL (≈ 0.000107 µM) | GI50 (A549): 80 ng/mL (≈ 0.267 µM) | GI50 (HCT-15): 60 ng/mL (≈ 0.2 µM) | GI50 (HT-29): 2.6 ng/mL (≈ 0.00869 µM) | GI50 (PC-3): 4.4 ng/mL (≈ 0.0147 µM) | GI50 (RPTEC): 5.8 ng/mL (≈ 0.0194 µM) | GI50 (SK-OV-3): 600 ng/mL (≈ 2 µM) | GI50 (SK-MEL-2): 330 ng/mL (≈ 1.1 µM)

COc1cccc2c1C(=O)c1c(O)c3c(c(O)c1C2=O)C[C@@](O)(C(=O)CO)C[C@@H]3O[C@H]1C[C@H](N)[C@H](O)[C@H](C)O1 [DOXORUBICIN]
GI50 (A498): 6.4 ng/mL (≈ 0.0118 µM) | GI50 (A549): 92 ng/mL (≈ 0.169 µM) | GI50 (HCT-15): 71 ng/mL (≈ 0.131 µM) | GI50 (HT-29): 4.6 ng/mL (≈ 0.00846 µM) | GI50 (PC-3): 29 ng/mL (≈ 0.0534 µM) | GI50 (RPTEC): 72 ng/mL (≈ 0.132 µM) | GI50 (SK-OV-3): 73 ng/mL (≈ 0.134 µM) | GI50 (SK-MEL-2): 59 ng/mL (≈ 0.109 µM)

c1ccc(-c2cccc(-c3ccccn3)n2)nc1 [TERPYRIDINE]
GI50 (A498): 0.097 ng/mL (≈ 0.000416 µM) | GI50 (A549): 90 ng/mL (≈ 0.386 µM) | GI50 (HCT-15): 71 ng/mL (≈ 0.304 µM) | GI50 (HT-29): 2.6 ng/mL (≈ 0.0111 µM) | GI50 (PC-3): 0.73 ng/mL (≈ 0.00313 µM) | GI50 (RPTEC): 14 ng/mL (≈ 0.06 µM) | GI50 (SK-OV-3): 72 ng/mL (≈ 0.309 µM) | GI50 (SK-MEL-2): 100 ng/mL (≈ 0.429 µM)
